Earlier results on one molecule are cited in PMC9851200, “Multiparameter phenotypic screening for endogenous TFEB and TFE3 translocation identifies novel chemical series modulating lysosome function” (Autophagy, 2022).

Holding throughout (design): method as in original PKIS2 published data
Data set [1] has as its target T1, kinases (KINOMEscan panel) (Homo sapiens, UniProt O14936).
T1 sequence (O14936 1-926): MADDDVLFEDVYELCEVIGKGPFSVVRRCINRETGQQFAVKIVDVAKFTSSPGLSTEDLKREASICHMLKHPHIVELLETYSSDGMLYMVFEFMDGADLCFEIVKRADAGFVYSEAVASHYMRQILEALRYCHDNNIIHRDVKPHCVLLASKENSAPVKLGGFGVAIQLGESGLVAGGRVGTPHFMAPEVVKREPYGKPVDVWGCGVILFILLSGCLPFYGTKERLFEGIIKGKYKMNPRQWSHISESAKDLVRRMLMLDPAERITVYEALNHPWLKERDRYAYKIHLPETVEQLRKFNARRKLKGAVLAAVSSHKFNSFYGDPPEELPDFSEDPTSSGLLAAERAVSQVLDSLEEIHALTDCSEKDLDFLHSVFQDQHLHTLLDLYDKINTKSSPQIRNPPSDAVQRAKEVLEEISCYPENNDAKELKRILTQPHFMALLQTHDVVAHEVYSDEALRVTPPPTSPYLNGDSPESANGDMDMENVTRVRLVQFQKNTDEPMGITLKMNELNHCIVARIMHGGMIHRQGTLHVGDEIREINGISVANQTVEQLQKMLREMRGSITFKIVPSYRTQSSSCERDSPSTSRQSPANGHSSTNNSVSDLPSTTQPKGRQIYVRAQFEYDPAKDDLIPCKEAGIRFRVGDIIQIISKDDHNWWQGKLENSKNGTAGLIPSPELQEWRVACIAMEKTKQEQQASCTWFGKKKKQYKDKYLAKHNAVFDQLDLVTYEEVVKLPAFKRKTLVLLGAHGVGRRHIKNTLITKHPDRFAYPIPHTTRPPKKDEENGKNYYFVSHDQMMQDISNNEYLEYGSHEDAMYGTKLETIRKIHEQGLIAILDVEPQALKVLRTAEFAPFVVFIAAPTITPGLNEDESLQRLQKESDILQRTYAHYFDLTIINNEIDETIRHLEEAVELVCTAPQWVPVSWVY
Conditions: kinase CASK; Published KINOMEscan; ref original PKIS2 published data; cited from earlier work.

In data set [2] the target is T2, kinases (KINOMEscan panel) (Homo sapiens, UniProt P51956).
T2 sequence (P51956 1-506): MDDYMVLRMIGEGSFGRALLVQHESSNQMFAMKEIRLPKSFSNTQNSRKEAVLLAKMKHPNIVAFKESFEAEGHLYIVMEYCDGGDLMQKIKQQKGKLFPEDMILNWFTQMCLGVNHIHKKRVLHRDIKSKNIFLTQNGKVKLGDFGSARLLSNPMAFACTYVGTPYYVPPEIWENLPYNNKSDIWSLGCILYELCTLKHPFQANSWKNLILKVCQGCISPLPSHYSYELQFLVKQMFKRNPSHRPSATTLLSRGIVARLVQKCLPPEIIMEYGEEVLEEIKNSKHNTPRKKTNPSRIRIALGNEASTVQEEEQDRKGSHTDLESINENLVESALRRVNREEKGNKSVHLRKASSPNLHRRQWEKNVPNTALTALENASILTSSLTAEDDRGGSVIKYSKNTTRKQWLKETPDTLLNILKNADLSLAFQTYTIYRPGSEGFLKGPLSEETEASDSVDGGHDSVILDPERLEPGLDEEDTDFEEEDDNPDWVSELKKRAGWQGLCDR
The conditions noted are these: kinase NEK3; Published KINOMEscan; ref original PKIS2 published data; cited from earlier work.

Data set [3] deals with kinases (KINOMEscan panel) (Homo sapiens, UniProt Q96J92). Conditions: WNK4; Published KINOMEscan; ref original PKIS2 published data; cited from earlier work.
kinases (KINOMEscan panel) (Homo sapiens, UniProt Q96J92), sequence (Q96J92 whole entry): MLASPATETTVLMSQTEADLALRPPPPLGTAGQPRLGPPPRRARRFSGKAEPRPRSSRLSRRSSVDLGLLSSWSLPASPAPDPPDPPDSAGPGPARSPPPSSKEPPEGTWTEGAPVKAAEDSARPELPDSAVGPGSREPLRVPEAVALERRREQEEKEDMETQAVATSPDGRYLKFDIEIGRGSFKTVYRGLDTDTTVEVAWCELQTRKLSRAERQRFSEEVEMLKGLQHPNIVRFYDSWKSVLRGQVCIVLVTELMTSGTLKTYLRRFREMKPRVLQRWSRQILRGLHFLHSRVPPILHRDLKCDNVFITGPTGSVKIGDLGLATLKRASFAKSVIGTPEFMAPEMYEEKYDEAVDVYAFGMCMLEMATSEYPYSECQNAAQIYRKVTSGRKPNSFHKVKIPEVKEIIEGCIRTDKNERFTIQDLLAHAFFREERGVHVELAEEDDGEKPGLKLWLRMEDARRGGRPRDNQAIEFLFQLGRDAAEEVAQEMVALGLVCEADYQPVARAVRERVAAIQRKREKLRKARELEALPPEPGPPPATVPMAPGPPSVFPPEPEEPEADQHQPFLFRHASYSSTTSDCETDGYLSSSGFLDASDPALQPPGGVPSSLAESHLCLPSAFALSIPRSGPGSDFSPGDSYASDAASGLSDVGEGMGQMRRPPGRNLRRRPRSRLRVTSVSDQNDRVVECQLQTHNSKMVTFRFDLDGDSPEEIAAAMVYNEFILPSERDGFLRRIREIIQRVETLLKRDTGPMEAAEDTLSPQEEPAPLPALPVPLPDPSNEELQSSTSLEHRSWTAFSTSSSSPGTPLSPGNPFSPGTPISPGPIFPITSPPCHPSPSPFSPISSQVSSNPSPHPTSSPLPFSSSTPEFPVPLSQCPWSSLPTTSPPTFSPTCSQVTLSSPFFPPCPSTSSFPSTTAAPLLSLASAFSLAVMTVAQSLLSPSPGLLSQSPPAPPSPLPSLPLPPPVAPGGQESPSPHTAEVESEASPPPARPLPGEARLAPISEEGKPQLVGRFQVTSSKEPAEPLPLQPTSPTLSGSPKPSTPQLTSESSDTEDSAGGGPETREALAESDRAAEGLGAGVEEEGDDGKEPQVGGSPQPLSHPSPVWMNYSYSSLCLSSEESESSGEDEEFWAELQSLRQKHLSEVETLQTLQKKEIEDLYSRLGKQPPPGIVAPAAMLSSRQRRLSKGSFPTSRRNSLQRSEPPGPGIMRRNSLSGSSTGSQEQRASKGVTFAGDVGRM
Data set [4] has as its target kinases (KINOMEscan panel) (Homo sapiens, UniProt P42684). The conditions noted are these: ABL2; Published KINOMEscan; ref original PKIS2 published data; cited from earlier work.
For data set [5], the target named is T3, kinases (KINOMEscan panel) (Homo sapiens, UniProt P42680).
T3 sequence (P42680 1-631): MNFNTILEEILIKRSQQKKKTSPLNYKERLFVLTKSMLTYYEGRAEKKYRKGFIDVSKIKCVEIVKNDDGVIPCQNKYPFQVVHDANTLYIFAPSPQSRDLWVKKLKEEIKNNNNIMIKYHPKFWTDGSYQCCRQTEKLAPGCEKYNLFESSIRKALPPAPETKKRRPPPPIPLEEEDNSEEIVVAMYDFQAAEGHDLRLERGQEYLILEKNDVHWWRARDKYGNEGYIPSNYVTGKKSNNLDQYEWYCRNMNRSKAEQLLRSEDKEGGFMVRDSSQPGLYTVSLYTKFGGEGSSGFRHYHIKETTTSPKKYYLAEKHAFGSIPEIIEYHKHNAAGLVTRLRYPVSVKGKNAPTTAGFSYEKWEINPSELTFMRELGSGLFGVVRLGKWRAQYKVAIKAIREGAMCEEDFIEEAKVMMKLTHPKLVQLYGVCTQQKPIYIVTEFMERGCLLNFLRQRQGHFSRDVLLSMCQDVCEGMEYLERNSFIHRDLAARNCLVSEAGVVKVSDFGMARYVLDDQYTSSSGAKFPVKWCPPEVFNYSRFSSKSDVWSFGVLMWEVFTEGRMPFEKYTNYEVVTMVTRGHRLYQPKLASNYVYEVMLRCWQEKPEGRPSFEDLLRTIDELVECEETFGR
The conditions noted are these: kinase TEC; Published KINOMEscan; ref original PKIS2 published data; cited from earlier work.

kinases (KINOMEscan panel) (Homo sapiens, UniProt P42684), sequence (P42684 whole entry): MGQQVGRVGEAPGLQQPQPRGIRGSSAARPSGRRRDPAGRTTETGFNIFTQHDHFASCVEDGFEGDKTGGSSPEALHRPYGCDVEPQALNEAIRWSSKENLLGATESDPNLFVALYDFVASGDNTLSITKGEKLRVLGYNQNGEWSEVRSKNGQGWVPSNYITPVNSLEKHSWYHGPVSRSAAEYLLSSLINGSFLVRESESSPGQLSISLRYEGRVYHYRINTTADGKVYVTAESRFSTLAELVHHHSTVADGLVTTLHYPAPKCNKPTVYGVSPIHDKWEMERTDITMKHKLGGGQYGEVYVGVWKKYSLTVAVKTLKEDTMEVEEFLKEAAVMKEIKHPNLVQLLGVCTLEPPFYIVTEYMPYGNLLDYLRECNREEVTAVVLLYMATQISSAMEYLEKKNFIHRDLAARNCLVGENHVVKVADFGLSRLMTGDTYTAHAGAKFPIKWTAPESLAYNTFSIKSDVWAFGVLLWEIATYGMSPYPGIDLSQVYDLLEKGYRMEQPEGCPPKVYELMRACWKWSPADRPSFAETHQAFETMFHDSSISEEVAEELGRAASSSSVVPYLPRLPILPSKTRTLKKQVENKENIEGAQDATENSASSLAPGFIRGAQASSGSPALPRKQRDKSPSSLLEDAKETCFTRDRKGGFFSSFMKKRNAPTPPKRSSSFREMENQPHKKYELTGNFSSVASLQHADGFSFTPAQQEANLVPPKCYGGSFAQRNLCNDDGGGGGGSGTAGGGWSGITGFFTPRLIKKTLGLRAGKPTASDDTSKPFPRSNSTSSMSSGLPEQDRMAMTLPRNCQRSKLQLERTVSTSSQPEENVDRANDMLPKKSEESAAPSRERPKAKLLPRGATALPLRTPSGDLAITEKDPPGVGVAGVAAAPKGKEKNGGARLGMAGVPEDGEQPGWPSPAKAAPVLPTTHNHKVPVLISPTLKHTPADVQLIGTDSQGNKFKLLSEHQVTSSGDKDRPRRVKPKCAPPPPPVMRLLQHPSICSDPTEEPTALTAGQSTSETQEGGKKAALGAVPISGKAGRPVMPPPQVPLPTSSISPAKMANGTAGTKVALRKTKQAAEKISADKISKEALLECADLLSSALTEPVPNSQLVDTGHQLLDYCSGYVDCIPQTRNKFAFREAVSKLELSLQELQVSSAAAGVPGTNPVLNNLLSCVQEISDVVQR

On to `Cc1cccc(-c2nc(Nc3ccncc3)c3ccccc3n2)n1` [NK215], for which the “KINOMEscan CASK” value in data set [1] was 0. Moreover, the “KINOMEscan NEK3” value in data set [2] is on record as 30. For the same molecule, in data set [3], the “KINOMEscan WNK4” value is 0. For the same molecule, the “KINOMEscan ABL2” value in data set [4] was 22. The “KINOMEscan TEC” value in data set [5] was 10.
